± gives the standard deviation of the averaged measurements.
Compound: C=C1C[C@H]2C=Nc3cc(OCCCCCOc4cc5c(cc4OC)C(=O)N4CC(=C)C[C@H]4C=N5)c(OC)cc3C(=O)N2C1 [SG2057]
Test: absolute IC50 (cell viability, CellTiter-Glo); higher = less potent
Conditions: treatment time: 3 days
Experimental: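 Large cancer cell line panel screens in 384-well plates. Cells were treated for 3 days with a 9-point dose titration of the free PBD dimer SG2057; viability was read with CellTiter-Glo. Absolute IC50 came from a four-parameter Hill fit normalised to the median of vehicle (DMSO) wells. Several independent screens (projects) per cell line are averaged; values in µM, lowest-dose floor about 1.524e-5 µM.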

Test System | absolute IC50 [nM]
HEC-1-B | 6.12
HMY-1 | 1.17 ± 0.94
U266B1 | 2.64 ± 2.4
KP-N-SI9s | 0.0551
KP-2 | 4.15
SCLC-21H | 0.788
MDA-MB-435 | 1.76 ± 2.4
MFM-223 | 0.743 ± 0.14
ABC-1 | 0.365 ± 0.24
HCC515 | 0.134 ± 0.17
AE17 | 0.259
SNU-668 | 0.573
KHM-1B | 0.335 ± 0.24
UM-RC-6 | 0.651
OCI-AML5 | 0.0729 ± 0.11
LNCaP/Ner | 0.0717
HUH-7 | 1.82
HEC-6 | 0.536
4498-16820 Mel-BR1 X1 | 0.911
A-427 | 0.831
GR-M | 0.107 ± 0.064
Pfeiffer | 1.21 ± 2
HEp-2 | 0.322

Test System | absolute IC50 [nM]
Hs 38.T | 1.36 ± 1.7
GCH-nu-YS | 0.242
Panc 08.13 | 2.7
RERF-GC-1B | 1.07 ± 1
CHP-212 | 0.105
LA-4 | 1.59
RL95-2 | 1.9
HCA-1 | 4.69
OCI-M1 | 0.227 ± 0.13
KPL-1 | 2.48 ± 1.5
Capan-2 | 4.33 ± 0.82
COLO 685 | 1.32
SBC-7 | 0.53
T84 | 2.92 ± 2.4
HEC-151 | 0.352
MKN-45 | 1.08 ± 0.44
MPC-11 | 0.229
SK-BR-3 | 0.69 ± 0.71
Reh | 0.757
HMVII | 0.434 ± 0.73
SK-N-BE(2) | 1.64
COLO 320HSR | 1.9
NCI-H460 | 0.242 ± 0.2

Test System | absolute IC50 [nM]
66c14 | 0.725
KHM-5M | 0.561
HCS-2 | 0.957
NCI-H1770 | 7.47
SW 780 | 0.754
NCI-H2228 | 0.279
UM-RC-7 | 0.672
IM-95 | 2.41
NCI-H1734 | 0.237
OCI-LY-10 | < 0.0152
SUM 52PE | 2.62 ± 1.5
NCI-H441 | 0.535
HCC1493 | 0.412 ± 0.72
IGR-37 | 0.339 ± 0.47
CA46 | 0.354 ± 0.53
HEC-116 | 0.464
Hepa 1-6 | 0.286
BFTC-909 | 0.681
SU-DHL-6 | 0.536 ± 0.73
G142 | 0.556 ± 1
NCI-H522 | 0.544
SNU-387 | 5.76
SNU-638 | 0.137 ± 0.046

Test System | absolute IC50 [nM]
MKN-1 | 0.867 ± 1.1
Panc 05.04 | 1.68 ± 0.4
SJSA-1 | 0.0954
4T1 Luciferase | 3.01
RVH-421 | 0.569
SJCRH30 (RC13) | 0.187
CL-11 | 21.7
NCI-H2722 | 0.343
C-33 A | 0.0527
CAMA-1 | 5.02
GI-1 | 0.311
NCI-H1651 | 0.443
CX-1 | 1.82 ± 2
Hs 746T | 1.81 ± 3.4
MC-38 | 0.186
ONS-76 | 0.487
LL/2 | 0.449
SNG-M | 0.285 ± 0.16
HCC2279 | 3.55 ± 6.2
NCI-H226 | 1.27 ± 2.5
OE21 | 0.259
BEN | 43.1
WiDr | 1.38 ± 0.42

Test System | absolute IC50 [nM]
COLO 320 | 12
LN-18 | 2.2 ± 1.4
DLD-1 | 1.01 ± 0.81
COLO 783 | 3.44
SW 626 | 3.67
SW 948 | 3.39 ± 3.9
1624-17082 (Tumor A) | 0.887
HT-29 | 2.89 ± 2
NCI-H2731 | 1.29 ± 1.9
Hs 895.T | 7.53
LTPA | 1.46
HUP-T3 | 0.645 ± 0.72
EFM-192A | 1.2
BE(2)-M17 | 0.494
SH-SY5Y | 0.142
MDA-MB-468 | 0.353 ± 0.36
NCI-H1838 | 2.32 ± 2.8
A-498 | 2.47
JHH-1 | 2.07 ± 3.1
NCI-H1650 | 2.52
KP4 | 0.251 ± 0.14
EMT6 Luciferase | 0.606
KMM-1 | 0.515 ± 0.079

Test System | absolute IC50 [nM]
NCI-H2009 | 1.1 ± 0.98
HCC1054 | 0.292
G111 | 0.208 ± 0.22
PE/CA-PJ15 | 0.216
KATO III | 5.09
Clone M-3 Cloudman S91 melanoma | 0.202
NCI-H1563 | 3.61
OAW42 | 1.38 ± 1.6
NCI-H1648 | 8.58
KELLY | 0.12
SIMA | 0.863
KLN 205 | 2.12
HCC2450 | 5.43
CAL-85-1 | 1.67 ± 0.48
NCI-H1437 | 2.05 ± 2
Calu-6 | 6.78
Ishikawa | 0.311
MDA-MB-436 | 0.327 ± 0.2
NCI-H2052 | 0.717
OCUM-1 | 0.529 ± 0.32
COLO 201 | 0.782
PEO1 | 0.538 ± 0.19
1624-17091 (Tumor B) | 2.12

Test System | absolute IC50 [nM]
KYSE-270 | 0.409
SUM 159PT | 0.681
K-562 | 0.617 ± 0.68
COLO 684 | 5
Toledo | 0.279 ± 0.28
CAL-12T | 3.57 ± 3.2
SW 1990 | 0.516 ± 0.22
PK-1 | 1.53 ± 1.3
U-87 MG | 3.32
KNS-62 | 1.4 ± 2.5
OPM-2 | 1.63 ± 1.2
JJ012 | 6.35
COLO 829 | 0.32 ± 0.18
HGC-27 | 0.406 ± 0.086
769-P | 4.38 ± 4.6
B16-F10 | 1.01
SK-N-FI | 8.79 ± 11
1624-16997 (Tumor C) | 1.55
NB-1 | < 0.0152
A172 | 0.554
PA-TU-8988S | 52.1
SCLC-22H | 0.905
HCC850 | 0.178

Test System | absolute IC50 [nM]
SM1 | 0.444
NCI-H1155 | 0.221 ± 0.2
MS751 | 0.683
Panc 02.03 | 2.51 ± 3.8
EL4 | 0.0929
HCSC-1 | 3.07
MDA-MB-157 | 1.86 ± 1.7
OvCA 432 | 1.08 ± 0.64
NCI-H28 | 0.89
KNS-81 | 0.189
SK-MEL-2 | 1.16 ± 0.55
RERF-LC-OK | 0.729 ± 1
NTERA-2 | < 0.0152
HCC4011 | 4.15 ± 4.6
FaDu | 0.35
Panc 10.05 | 0.383 ± 0.11
59M | 1.47
JHH-5 | 0.248
VP267 | 4.86
HEC-59 | 0.472
BICR 22 | 0.854
COLO 858 | 1.72 ± 1.4
SNU-182 | 1.36 ± 1.5

Source: the supplement of paper PMC10784567
